Laboratory results reported in patent publication US5578570A, “Method of treating septic shock using thymosin β4” (The George Washington University Medical Center, priority 1994, dated 1996).

Test system: TNF-α
Test: Serum TNF-α levels in mice treated with lethal doses of endotoxin
Format: in vivo
Conditions: for TNF-α (serum level): Table XIII, endotoxin 60 mg/kg + Tβ4 100 μg administered immediately after endotoxin
Source text: The results presented in Tables III-V below show effects of Tβ4 respectively on mice cerebellar cGMP levels, blood serum TNF-α levels, and blood serum TNF-α and IL-1α levels.
Using the same methods and materials as in examples 1-3, the effect which Tβ4 has on blood levels of IL-1α, TNF-α, PAG, Txβ2 and 6-keto-PGF1 α, which are pathological mediators of endotoxin induced lethality, was studied.

Thymosin β4 [Tβ4] was tested, and the “Serum TNF-α” value (Table IV, endotoxin 60 mg/kg + Tβ4 100 μg, 1 hr) was 823 ± 79 pg/mL, the “Serum TNF-α” value (Table IV, endotoxin 60 mg/kg + Tβ4 100 μg, 3 hr) was 535 ± 47 pg/mL and the “Serum TNF-α” value (Table IV, endotoxin 60 mg/kg + Tβ4 100 μg, 5 hr) was 480 ± 45 pg/mL. For the same substance, the “Serum TNF-α” value (Table V, pretreatment (SOD 3.3 × 10^4 μ/kg, 30 minutes before endotoxin; Tβ4 100 μg/mice), blood collected 1 hr after endotoxin) was 321 ± 26.2 pg/mL, the “TNF-α (serum level)” value (1 hr) was 807 pg/mL and the “TNF-α (serum level)” value (3 hr) was 591 pg/mL. The “TNF-α (serum level)” value (5 hr) was 496 pg/mL.
